“And” between values parts separate entries of the source, which are not always exact repeats. Identical values can stand only once. “Also recorded” adds a separate entry of the source. Like-named read-outs stand apart in the source and are kept apart here.
How the values were obtained:
[1] = molecular target: T1, BKα channels (human BK channel α-subunit, HEK-293T) (Homo sapiens, UniProt Q12791); conditions: for τ of decay phase on LOP application: perfusion limited; for V1/2: 10 μM LOP; for effective off-rate: IC50 × on-rate; for τrecovery: two-pulse protocol
[2] = molecular target: BKα/γ1 channels (human BK channel α- and γ1-subunits (LRRC26), HEK-293T) (Homo sapiens, UniProt Q12791); assay: Macroscopic BK currents in excised inside-out patches; assay type: biochemical
[3] = molecular target: BKα channels (Homo sapiens, UniProt Q12791); assay: Kinetic model analysis
[4] = test system: BK channel; conditions: ref Vouga et al., 2019; cited from earlier work
[5] = LOP levels with a therapeutic dose in humans; assay type: in vivo; conditions: therapeutic dose of 2–4 mg, assuming solvation in 1 liter of luminal fluid
[6] = molecular target: T1, BKα channels (human BK channel α-subunit, HEK-293T); assay: biochemical
[7] = humans; therapeutic dose of 2–4 mg; conversion of 2 ng/ml; cited from earlier work
[8] = molecular target: T1, BKα channels (human BK channel α-subunit, HEK-293T); conditions: 30 µM LOP
[9] = molecular target: BKα/γ1 channels (Homo sapiens, UniProt Q12791); assay: Whole-cell recordings from HEK-293T cells overexpressing BKα/γ1 channels; assay type: cell-based
[10] = IC50 (Hill fit of mean Gmax versus [LOP]), nominally 0 Ca2+
[11] = IC50 (Hill fit of mean V1/2 versus [LOP]), nominally 0 Ca2+
[12] = nominally 0 Ca2+, 30 μM LOP, mean of individual Boltzmann fits
[13] = nominally 0 Ca2+, −100 to −60 mV

Sequence of BKα channels (Q12791 whole entry): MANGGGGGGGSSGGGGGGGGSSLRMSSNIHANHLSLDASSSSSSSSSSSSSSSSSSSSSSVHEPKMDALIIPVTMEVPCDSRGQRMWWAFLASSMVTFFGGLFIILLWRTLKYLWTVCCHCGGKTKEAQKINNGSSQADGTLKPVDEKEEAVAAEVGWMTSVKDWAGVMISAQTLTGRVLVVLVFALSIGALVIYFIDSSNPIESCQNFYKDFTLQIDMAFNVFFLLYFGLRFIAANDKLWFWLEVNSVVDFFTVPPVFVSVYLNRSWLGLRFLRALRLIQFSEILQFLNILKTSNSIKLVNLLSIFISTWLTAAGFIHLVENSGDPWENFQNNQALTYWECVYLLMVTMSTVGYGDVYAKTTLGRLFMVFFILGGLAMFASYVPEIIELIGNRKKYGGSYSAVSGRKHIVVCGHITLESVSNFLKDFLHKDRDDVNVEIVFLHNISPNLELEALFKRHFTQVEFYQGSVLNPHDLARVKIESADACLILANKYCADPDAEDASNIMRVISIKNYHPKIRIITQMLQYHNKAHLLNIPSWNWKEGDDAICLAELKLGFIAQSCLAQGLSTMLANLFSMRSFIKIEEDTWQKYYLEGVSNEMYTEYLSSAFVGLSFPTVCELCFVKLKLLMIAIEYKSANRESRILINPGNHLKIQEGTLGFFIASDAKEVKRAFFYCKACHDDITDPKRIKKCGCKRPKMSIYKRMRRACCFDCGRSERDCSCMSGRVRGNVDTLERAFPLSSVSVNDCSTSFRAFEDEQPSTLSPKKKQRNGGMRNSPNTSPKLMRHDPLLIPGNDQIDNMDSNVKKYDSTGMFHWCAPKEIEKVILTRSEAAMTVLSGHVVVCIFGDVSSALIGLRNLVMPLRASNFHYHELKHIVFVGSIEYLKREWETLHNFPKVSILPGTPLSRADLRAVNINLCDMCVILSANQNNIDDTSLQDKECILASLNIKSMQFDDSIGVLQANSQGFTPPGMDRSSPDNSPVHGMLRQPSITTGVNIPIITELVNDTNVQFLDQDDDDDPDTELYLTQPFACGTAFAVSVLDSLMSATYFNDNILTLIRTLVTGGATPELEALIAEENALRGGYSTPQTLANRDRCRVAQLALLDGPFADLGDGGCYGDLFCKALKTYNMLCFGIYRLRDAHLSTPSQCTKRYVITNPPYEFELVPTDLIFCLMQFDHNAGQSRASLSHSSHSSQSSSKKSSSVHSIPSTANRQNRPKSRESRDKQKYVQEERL
Sequence of BKα/γ1 channels (human BK channel α- and γ1-subunits (LRRC26), HEK-293T) (Q12791 whole entry): as above
Sequence of BKα/γ1 channels (human BK channel α- and γ1-subunits (LRRC26), HEK-293T) (Q2I0M4 27-334 partner): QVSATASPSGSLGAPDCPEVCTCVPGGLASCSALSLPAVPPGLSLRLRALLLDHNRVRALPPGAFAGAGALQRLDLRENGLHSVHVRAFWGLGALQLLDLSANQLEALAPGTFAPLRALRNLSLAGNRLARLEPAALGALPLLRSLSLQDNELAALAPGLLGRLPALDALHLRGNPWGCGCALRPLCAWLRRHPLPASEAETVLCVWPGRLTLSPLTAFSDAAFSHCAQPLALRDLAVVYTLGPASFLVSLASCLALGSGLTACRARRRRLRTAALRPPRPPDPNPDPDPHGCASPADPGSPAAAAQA
T1 sequence (Q12791 whole entry, the tested form may be a part): as the sequence (Q12791 whole entry) above
Sequence of BKα/γ1 channels (Q12791 whole entry): as above
Sequence of BKα/γ1 channels (Q2I0M4 27-334 partner): as the sequence (Q2I0M4 27-334 partner) above

CN(C)C(=O)C(CCN1CCC(O)(c2ccc(Cl)cc2)CC1)(c1ccccc1)c1ccccc1 [LOP, 4-[4-(4-chlorophenyl)-4-hydroxypiperidin-1-yl]-N,N-dimethyl-2,2-diphenylbutanamide]
mean fractional current ([1]; 3 µM LOP cytosolic with 3 µM extracellular LOP (pipette), 88 µM Ca2+): 0.361 ± 0.013
mean fractional current ([1]; 3 µM LOP cytosolic without extracellular LOP, 88 µM Ca2+): 0.292 ± 0.033
effect of extracellular LOP alone on BK current ([1]; 3 µM LOP in pipette solution, 88 µM Ca2+, several minutes): little apparent effect; also recorded: no apparent inhibition
decrease of normalized current ([1]; 3 µM LOP in the pipette, 0 LOP cytosolic, after 30 min of continuous recording): 5–10%
τ of decay phase on LOP application ([1]; 30 µM LOP cytosolic, 0 µM Ca2+, representative experiment): 8.5 s
τ of decay phase on LOP application ([1]; 30 µM LOP cytosolic, 88 µM Ca2+, representative experiment): 7.1 s
current recovery after washout of LOP (of predrug amplitude) ([1]; 30 µM LOP cytosolic, Fig. 2 A): ~100%
time constant of LOP reaching 90% of its maximal effect ([1]; 30 µM LOP to cytosolic side, 88 µM Ca2+, reflects solution switching): 7 ± 1 s
A (Eq. 4, IC50 versus voltage) ([1]; 88 µM Ca2+): 0.39
min V1/2 (Hill fit of mean V1/2 versus [LOP]) ([1]; 88 µM Ca2+): −57 ± 8 mV
nH (Hill fit of mean Gmax versus [LOP]) ([1]; 88 µM Ca2+): 0.79 ± 0.06
nH (Hill fit of mean V1/2 versus [LOP]) ([1]; 88 µM Ca2+): 0.94 ± 0.6
y0 (final normalized current in pulse train) ([1]; 88 μM Ca2+, 3 µM LOP, 90 mV / -60 mV duration 2 / 2 ms): 0.50 ± 0.019
y0 (final normalized current in pulse train) ([1]; 88 μM Ca2+, 3 µM LOP, 90 mV / -60 mV duration 2 / 8 ms): 0.74 ± 0.032
V1/2 ([1]; 88 μM Ca2+, mean of individual Boltzmann fits): −54 ± 7 mV
Gmax ([1]; 88 μM Ca2+, 30 μM LOP, mean of individual Boltzmann fits): 0.0763 ± 0.008
effective on-rate (slope of 1/τdecay versus [LOP]) ([1]; 88 µM Ca2+, 50 mV): 4.3 ± 0.4 × 10^7 M^−1 s^−1 and 4.3 × 10^7 ± 0.4 × 10^7 M^−1 s^−1
effective off-rate ([1]; 88 µM Ca2+, 50 mV): ~40 s⁻¹
effective on-rate (slope of 1/τdecay versus [LOP]) ([1]; 88 µM Ca2+, 90 mV): 5.8 ± 0.6 × 10^7 M^−1 s^−1 and 5.8 × 10^7 ± 0.6 × 10^7 M^−1 s^−1
effective off-rate ([1]; 88 µM Ca2+, 90 mV): 41 s⁻¹ and 40 s⁻¹
nominal effective valence of on-rates (Eq. 5) ([1]; 88 µM Ca2+, on-rates at 50 and 90 mV): 0.21 ± 0.11 e0
τrecovery ([1]; 88 µM Ca2+, −80 mV, 3 µM LOP): 3.87 ms
τrecovery ([1]; 88 µM Ca2+, −80 mV, 10 µM LOP): 4.14 ms
mean tail current τ ([1]; 88 µM Ca2+, −80 mV, 3 µM LOP): 1.82 ± 0.14 ms
mean tail current τ ([1]; 88 µM Ca2+, −80 mV, 10 µM LOP): 2.05 ± 0.6 ms
τrecovery ([1]; 88 µM Ca2+, −120 mV, 3 µM LOP): 2.04 ms
τrecovery ([1]; 88 µM Ca2+, −120 mV, 10 µM LOP): 2.11 ms
mean tail current τ ([1]; 88 µM Ca2+, −120 mV, 3 µM LOP): 0.71 ± 0.06 ms
mean tail current τ ([1]; 88 µM Ca2+, −120 mV, 10 µM LOP): 0.78 ± 0.07 ms
current recovery following washout of cytosolic LOP ([1]; 3 or 30 µM cytosolic LOP with 3 µM extracellular LOP, 88 µM Ca2+, Fig. 2 B): > 90%
A (Eq. 4, IC50 versus voltage) ([1]; nominally 0 Ca2+): 5,500
mean zδ value of G-V relations versus [LOP] ([1]; nominally 0 Ca2+): 1.1 e0
min Gmax (Hill fit of mean Gmax versus [LOP]) ([1]; nominally 0 Ca2+): 0.16 ± 0.04
min V1/2 (Hill fit of mean V1/2 versus [LOP]) ([1]; nominally 0 Ca2+): 162 ± 16 mV
nH (Hill fit of mean Gmax versus [LOP]) ([1]; nominally 0 Ca2+): 1.2 ± 0.13
nH (Hill fit of mean V1/2 versus [LOP]) ([1]; nominally 0 Ca2+): 0.65 ± 1.1
V1/2 ([1]; nominally 0 Ca2+, mean of individual Boltzmann fits): 165 ± 5 mV
time to complete reversal of inhibition upon washout ([1]; switch from 30 to 0 µM LOP, cytosolic side): ≤ 1 min
τ of wash phase ([1]; washout of 30 µM LOP, 0 µM Ca2+, representative experiment): 35 s
apparent closing rate (1/τclosing) ([1]; −80 mV, 3 µM LOP): 684 ± 57 s⁻¹
tail current τ (fit to mean trace) ([1]; −80 mV, 3 µM LOP): 1.99 ms
tail current τ (representative trace) ([1]; −80 mV, 3 µM LOP): 2.25 ms
tail current τ (fit to mean trace) ([1]; −80 mV, 10 µM LOP): 1.77 ms
tail current τ (representative trace) ([1]; −80 mV, 10 µM LOP): 1.73 ms
apparent closing rate (1/τclosing) ([1]; −120 mV, 3 µM LOP): 1,460 ± 69 s^−1
tail current τ (fit to mean trace) ([1]; −120 mV, 3 µM LOP): 0.82 ms
tail current τ (representative trace) ([1]; −120 mV, 3 µM LOP): 0.876 ms
tail current τ (fit to mean trace) ([1]; −120 mV, 10 µM LOP): 0.85 ms
tail current τ (representative trace) ([1]; −120 mV, 10 µM LOP): 0.694 ms
IC50 [2, 10]: 2130 ± 300 nM
IC50 [2, 11]: 1500 ± 1700 nM
IC50 ([2]; IC50, nominally 0 Ca2+, Vm 0 mV, Hill fit of normalized G vs [LOP]): 11300 ± 3500 nM
A (Eq. 4, IC50 versus voltage) ([2]; nominally 0 Ca2+): 7.6
mean zδ value of G-V relations versus [LOP] ([2]; nominally 0 Ca2+): 1.2 e0
min V1/2 (Hill fit of mean V1/2 versus [LOP]) ([2]; nominally 0 Ca2+): −15 ± 11 mV
nH (Hill fit of mean Gmax versus [LOP]) ([2]; nominally 0 Ca2+): 0.74 ± 0.06
nH (Hill fit of mean V1/2 versus [LOP]) ([2]; nominally 0 Ca2+): 0.72 ± 0.4
Gmax [2, 12]: 0.12 ± 0.04
V1/2 [2, 12]: −11 ± 5 mV
KLOP in the open state [3]: 1.6 µM
KLOP (dissociation constant for LOP binding) ([3]; Sch 2, closed state, global fit, nominally 0 and 88 μM Ca2+): 53.4 µM
H (allosteric constant, LOP binding vs closed-open equilibrium) ([3]; Sch 2, fold difference in LOP affinity between closed and open states): 34.4
W (coupling between LOP binding and CSD activation) ([3]; Sch 5): 1.09
inhibition of BK channel–mediated thallium flux [4]: potent inhibitor
estimated concentration of LOP in the intestinal lumen [5]: ≥ 8 µM
IC50 ([6]; IC50 (Hill fit of mean Gmax versus [LOP]), 88 µM Ca2+): 1060 nM and 1100 nM
IC50 [6, 10]: 1400 nM and 1410 nM
IC50 ([6]; IC50 (Hill fit of mean V1/2 versus [LOP]), 88 µM Ca2+): 310 ± 300 nM
IC50 [6, 11]: 550 nM
IC50 ([6]; IC50(∞), asymptotic IC50 at very depolarized voltages (Eq. 4), 88 µM Ca2+): 870 nM
IC50 ([6]; IC50(∞), asymptotic IC50 at very depolarized voltages (Eq. 4), nominally 0 Ca2+): 2200 nM
IC50 ([6]; IC50, 88 μM Ca2+, Vm 50 mV, Hill fit of normalized G vs [LOP]): ~940 nM
IC50 ([6]; extrapolated IC50, 88 µM Ca2+, 90 mV): 710 nM
IC50 ([6]; half-maximal inhibitory concentration (IC50) for open channels, voltage-activated BK current, wide range of cytosolic [Ca2+]): ~1000 nM
plasma levels of LOP [7]: ~4 nM
mean open times ([8]; voltages up to 100 mV, nominally 0 or 88 µM Ca2+): ≤ 0.44 ms
V1/2 of mean open time (Boltzmann fit) ([8]; 88 µM Ca2+): −83 mV
min. open time (Boltzmann fit) ([8]; 88 µM Ca2+): 0.26 ms
zδ of mean open time (Boltzmann fit) ([8]; 88 µM Ca2+): 1.6 e0
effective inhibition rate ([8]; 88 µM Ca2+, 1/0.43 ms): 2,326 s^−1
mean open time ([8]; 88 µM Ca2+, +50 mV): 0.37 ± 0.044 ms
maximum open time (Boltzmann fit) ([8]; 88 µM Ca2+, depolarized voltages): 0.43 ± 0.03 ms and 0.43 ms
mean open time ([8]; 88 µM Ca2+, −50 mV): 0.44 ± 0.026 ms
Po ([8]; 88 µM Ca2+, −90 mV): 0.00728 ± 0.0010
inhibition of Po ([8]; 88 µM Ca2+, −90 mV): 2.7 fold
mean open time ([8]; 88 µM Ca2+, −90 mV): 0.32 ± 0.03 ms
Po ([8]; 88 µM Ca2+, −160 to −130 mV): 0.0037 ± 0.0003
mean open time ([8]; 88 µM Ca2+, −160 to −130 mV): 0.26 ± 0.004 ms
effective inhibition rate ([8]; nominally 0 Ca2+, 1/0.39 ms): 2,564 s^−1
Po ([8]; nominally 0 Ca2+, +60 mV): 1.3 ± 0.6 × 10^−4
inhibition of Po ([8]; nominally 0 Ca2+, +60 mV): 3.7 fold
mean open time ([8]; nominally 0 Ca2+, +60 mV): 0.32 ± 0.03 ms
Po ([8]; nominally 0 Ca2+, +80 mV): 5.4 ± 1.3 × 10^−4
inhibition of Po ([8]; nominally 0 Ca2+, +80 mV): 3.5 fold
mean open time ([8]; nominally 0 Ca2+, +80 mV): 0.38 ± 0.008 ms
extrapolated maximum open time (Boltzmann fit) ([8]; nominally 0 Ca2+, depolarized voltages): 0.39 ± 0.04 ms
mean Po [8, 13]: 1.7 ± 0.2 × 10^−6
mean open time [8, 13]: 0.18 ± 0.009 ms
current recovery after washout of LOP (of predrug amplitude) ([9]; 10 µM LOP, extracellular bath): ~80%
mean fractional whole-cell current at equilibrium ([9]; bath application of 10 µM LOP, pulses to 100 mV): 0.39 ± 0.06
slowing versus cytosolic application to excised inside-out patches ([9]; extracellular bath-applied LOP): ~20 times
mean time constant for inhibition to reach equilibrium ([9]; extracellular bath-applied LOP (10 µM)): 2.8 ± 0.4 min
τ of exponential fit (a) ([9]; representative experiment Fig. 5 A, first application of 10 µM LOP at t = 5 min): 1.9 min
τ of exponential fit (e) ([9]; representative experiment Fig. 5 A, washout at t = 25 min): 51 s
